Like-named read-outs stand apart in the source and are kept apart here.
How the values were obtained:
Experiment in all cases: Test of herbicidal activities (greenhouse pot method)
Assay type in all cases: in vivo
[1] = test system: Chenopodium album; settings: for inhibition at 300 g/ha: Chenopodium album, 360 h, read-out: Herbicidal activity Chenopodium album (inhibition level)
Procedure, shortened: (§1)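 Greenhouse pot test on weeds grown in mixed garden/mountain/humus soil at 15-30° C; pre- and post-emergence spray at a single dose of 300 g ai./h via automatic spraying tower (0.2 MPa). Inhibition scored after 15 days into five levels A (90-100%) to E (<50%); triplicate with blank control.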

[2] = test system: Setaria viridis; settings: for inhibition at 300 g/ha: Setaria viridis, 360 h, read-out: Herbicidal activity Setaria viridis (inhibition level)
Procedure, shortened: as §1

[3] = test system: Digiatria sanguinalis; settings: for inhibition at 300 g/ha: 360 h, read-out: Herbicidal activity Digiatria sanguinalis (inhibition level)
Procedure, shortened: as §1

[4] = test system: Brassica juncea; settings: for inhibition at 300 g/ha: Brassica juncea, 360 h, read-out: Herbicidal activity Brassica juncea (inhibition level)
Procedure, shortened: as §1

[5] = test system: Amaranthus retroflexus; settings: for inhibition at 300 g/ha: Amaranthus retroflexus, 360 h, read-out: Herbicidal activity Amaranthus retroflexus (inhibition level)
Procedure, shortened: as §1

[6] = test system: Echinochloa crusgalli; settings: for inhibition at 300 g/ha: Echinochloa crus-galli, 360 h, read-out: Herbicidal activity Echinochloa crusgalli (inhibition level)
Procedure, shortened: as §1

[7] = single dose 300 g ai./h, treated before/after germination, 15 days later, greenhouse pot

Row | Structure (SMILES) | Herbicidal activity Chenopodium album (inhibition level) [1, 7] | Herbicidal activity Setaria viridis (inhibition level) [2, 7] | Herbicidal activity Digiatria sanguinalis (inhibition level) [3, 7] | Herbicidal activity Brassica juncea (inhibition level) [4, 7] | Herbicidal activity Amaranthus retroflexus (inhibition level) [5, 7] | Herbicidal activity Echinochloa crusgalli (inhibition level) [6, 7] | other results
1 | C=CCSc1nc2cc(-n3nc(C)n(C(F)F)c3=O)c(Br)cc2s1 [Compound 88] | B (80 ≦ B < 90%) | D (50 ≦ D < 60%) | A (90 ≦ A ≦ 100%) | A (90 ≦ A ≦ 100%) | A (90 ≦ A ≦ 100%) | B (80 ≦ B < 90%) | –
2 | CCOC(=O)C(C)Sc1nc2cc(-n3nc(C)n(C(F)F)c3=O)c(F)cc2s1 (stereo not drawn) [Compound 89] | C (60 ≦ C < 80%) | A (90 ≦ A ≦ 100%) | A (90 ≦ A ≦ 100%) | B (80 ≦ B < 90%) | B (80 ≦ B < 90%) | A (90 ≦ A ≦ 100%) | –
3 | CSc1nc2cc(-n3nc(C)n(C(F)F)c3=O)c(F)cc2s1 [Compound 90] | A (90 ≦ A ≦ 100%) | A (90 ≦ A ≦ 100%) | A (90 ≦ A ≦ 100%) | A (90 ≦ A ≦ 100%) | A (90 ≦ A ≦ 100%) | B (80 ≦ B < 90%) | –
4 | CCCCSc1nc2cc(-n3nc(C)n(C(F)F)c3=O)c(F)cc2s1 [Compound 91] | C (60 ≦ C < 80%) | A (90 ≦ A ≦ 100%) | A (90 ≦ A ≦ 100%) | A (90 ≦ A ≦ 100%) | A (90 ≦ A ≦ 100%) | A (90 ≦ A ≦ 100%) | –
5 | CCCSc1nc2cc(-n3nc(C)n(C(F)F)c3=O)c(F)cc2s1 [Compound 92] | E (E < 50%) | C (60 ≦ C < 80%) | B (80 ≦ B < 90%) | A (90 ≦ A ≦ 100%) | A (90 ≦ A ≦ 100%) | B (80 ≦ B < 90%) | –
6 | CCOC(=O)CSc1nc2cc(-n3nc(C)n(C(F)F)c3=O)c(F)cc2s1 [Compound 93, Ethyl 1-{5-[4-difluoromethyl-3-methyl-5-oxo-4,5-dihydro-1,2,4-triazol-1-yl]-6-fluorobenzo[d]thiazol-2-ylthio}acetate] | – | – | – | – | – | – | inhibition at 300 g/ha [1]: 90 to 100%; inhibition at 300 g/ha [2]: 80 to 90%; inhibition at 300 g/ha [3]: 90 to 100%; inhibition at 300 g/ha [4]: 90 to 100%; inhibition at 300 g/ha [5]: 90 to 100%; inhibition at 300 g/ha [6]: 90 to 100%
7 | C=CCSc1nc2cc(-n3nc(C)n(C(F)F)c3=O)c(F)cc2s1 [Compound 94] | B (80 ≦ B < 90%) | A (90 ≦ A ≦ 100%) | A (90 ≦ A ≦ 100%) | B (80 ≦ B < 90%) | B (80 ≦ B < 90%) | A (90 ≦ A ≦ 100%) | –
8 | CCOC(=O)C(C)Sc1nc2cc(-n3nc(C)n(C(F)F)c3=O)c(Cl)cc2s1 (stereo not drawn) [Compound 95] | B (80 ≦ B < 90%) | A (90 ≦ A ≦ 100%) | A (90 ≦ A ≦ 100%) | D (50 ≦ D < 60%) | A (90 ≦ A ≦ 100%) | A (90 ≦ A ≦ 100%) | –
9 | CSc1nc2cc(-n3nc(C)n(C(F)F)c3=O)c(Cl)cc2s1 [Compound 96] | B (80 ≦ B < 90%) | C (60 ≦ C < 80%) | B (80 ≦ B < 90%) | B (80 ≦ B < 90%) | B (80 ≦ B < 90%) | B (80 ≦ B < 90%) | –
10 | CCCCSc1nc2cc(-n3nc(C)n(C(F)F)c3=O)c(Cl)cc2s1 [Compound 97] | B (80 ≦ B < 90%) | C (60 ≦ C < 80%) | C (60 ≦ C < 80%) | B (80 ≦ B < 90%) | B (80 ≦ B < 90%) | B (80 ≦ B < 90%) | –
11 | CCOC(=O)CSc1nc2cc(-n3nc(C)n(C(F)F)c3=O)c(Cl)cc2s1 [Compound 98] | – | – | – | – | – | – | inhibition at 300 g/ha [1, 7]: 80 to 90%; inhibition at 300 g/ha [2, 7]: 90 to 100%; inhibition at 300 g/ha [3, 7]: 90 to 100%; inhibition at 300 g/ha [4, 7]: 90 to 100%; inhibition at 300 g/ha [5, 7]: 90 to 100%; inhibition at 300 g/ha [6, 7]: 90 to 100%
12 | C=CCSc1nc2cc(-n3nc(C)n(C(F)F)c3=O)c(Cl)cc2s1 [Compound 99] | C (60 ≦ C < 80%) | B (80 ≦ B < 90%) | B (80 ≦ B < 90%) | B (80 ≦ B < 90%) | B (80 ≦ B < 90%) | A (90 ≦ A ≦ 100%) | –
13 | CCCSc1nc2cc(-n3nc(C)n(C(F)F)c3=O)c(Cl)cc2s1 [Compound 100] | A (90 ≦ A ≦ 100%) | C (60 ≦ C < 80%) | B (80 ≦ B < 90%) | A (90 ≦ A ≦ 100%) | A (90 ≦ A ≦ 100%) | B (80 ≦ B < 90%) | –
14 | Cc1nn(-c2cc3nc([S+]([O-])Cc4cccc(Cl)c4)sc3cc2F)c(=O)n1C (stereo not drawn) [Compound 103] | A (90 ≦ A ≦ 100%) | B (80 ≦ B < 90%) | B (80 ≦ B < 90%) | D (50 ≦ D < 60%) | A (90 ≦ A ≦ 100%) | E (E < 50%) | –
15 | Cc1ccccc1C[S+]([O-])c1nc2cc(-n3nc(C)n(C(F)F)c3=O)c(F)cc2s1 (stereo not drawn) [Compound 104] | A (90 ≦ A ≦ 100%) | C (60 ≦ C < 80%) | C (60 ≦ C < 80%) | A (90 ≦ A ≦ 100%) | A (90 ≦ A ≦ 100%) | C (60 ≦ C < 80%) | –
16 | Cc1ccc(C[S+]([O-])c2nc3cc(-n4nc(C)n(C(F)F)c4=O)c(F)cc3s2)cc1 (stereo not drawn) [Compound 105] | B (80 ≦ B < 90%) | B (80 ≦ B < 90%) | C (60 ≦ C < 80%) | B (80 ≦ B < 90%) | B (80 ≦ B < 90%) | D (50 ≦ D < 60%) | –
17 | Cc1ccc([N+](=O)[O-])c(C[S+]([O-])c2nc3cc(-n4nc(C)n(C(F)F)c4=O)c(F)cc3s2)c1 (stereo not drawn) [Compound 106] | A (90 ≦ A ≦ 100%) | B (80 ≦ B < 90%) | D (50 ≦ D < 60%) | B (80 ≦ B < 90%) | D (50 ≦ D < 60%) | D (50 ≦ D < 60%) | –
18 | Cc1nn(-c2cc3nc([S+]([O-])Cc4cccc(Cl)c4)sc3cc2Cl)c(=O)n1C(F)F (stereo not drawn) [Compound 107] | B (80 ≦ B < 90%) | D (50 ≦ D < 60%) | B (80 ≦ B < 90%) | A (90 ≦ A ≦ 100%) | A (90 ≦ A ≦ 100%) | B (80 ≦ B < 90%) | –
19 | Cc1nn(-c2cc3nc([S+](C)[O-])sc3cc2Br)c(=O)n1C(F)F (stereo not drawn) [Compound 108] | E (E < 50%) | B (80 ≦ B < 90%) | B (80 ≦ B < 90%) | A (90 ≦ A ≦ 100%) | B (80 ≦ B < 90%) | A (90 ≦ A ≦ 100%) | –
